Experimental findings from patent US20230416329A1, “A PEPTIDE WITH DISULFIDE BONDS AND INHIBITORY ACTIVITY AGAINST SERINE PROTEASES, DERIVED HYBRID PEPTIDES THEREOF, AND USES THEREOF” (INSTITUTE OF MATERIA MEDICA , CHINESE ACADEMY OF MEDICAL …, priority 2020, published 2023) are described below.

pIC50, pKi: −log10 of the molar value. Bridge positions count the residues as written; N and C are the ends. Peptide text beside a SMILES is read from it. Where only a bound is given, the exact number is not on record here.

For this assay, the target named is α-chymotrypsin (Bos taurus, UniProt P00766). In words: Chymotrypsin inhibitory activity of peptides (AAPFpNA hydrolysis; IC50, Ki, residual activity). Format: biochemical. Particulars: for pKi: Ki=IC50/(1+S/Km), Km 0.38 mM; for pIC50: chymotrypsin 30 nM, AAPFpNA 0.5 mM. The method, then: The inhibition constants of various synthetic active peptide inhibitors (molecular scaffolds) against seine proteases were measured. The substrates N-succinyl-Ala-Ala-Pro-Phe-p-nitroaniline (AAPFpNA), Nα—Benzoyl-L-arginine-4-nitroaniline hydrochloride (BApNA) and N-succinyl-[…] (AAApNA) are used in competitive binding reaction to determine the inhibitory activities against α-chymotrypsin, bovine trypsin, and porcine pancreatic elastase, respectively. Experiments for α-chymotrypsin and bovine trypsin inhibition were measured in 20 mM CaCl2, 50 mM Tris-HCl buffer (pH 7.8), and that for porcine elastase inhibition was measured in 50 mM Tris-HCl buffer (pH 8.0). The concentration of the peptide was measured using optical density (OD) at 280 nm. The Michaelis constant (Km) of the enzyme hydrolysis substrate is calculated from the initial rate of substrate hydrolysis at 405 nm. The absorbance value of the substrate was measured at 405 nm after complete hydrolysis. All data were processed using nonlinear regression.
• (1) Added a total 190 μL of reaction buffer (20 mM CaCl2, 50 mM Tris-HCl (pH 7.8)) into the 96 well plate, followed by preheating at 37° C. for 15 min. Then added 2 μL of different concentrations of substrates (p-Nitroanilide, pNA, 0.5% in DMSO), and mixed by centrifugation at 500 rpm for 1 min. Finally, the plate was incubated at 37° C. for 20 min, and the absorbance value at 405 nm was measured. In the 200 μL of reaction system, the final concentrations of pNA were 0, 0.025, 0.05, 0.075, 0.1, 0.125, 0.15, 0.25, and 0.3 mM, respectively. Make three repetitions for each concentration and plot the OD405 m value with pNA concentration to obtain the standard curve. • (2) Added a total 190 μL of reaction buffer (20 mM CaCl2, 50 mM Tris-HCl (pH 7.8)) and 8 μL of 0.75 μM chymotrypsin into the 96 well plate, followed by preheating at 37° C. for 5 min. Then added 2 μL of different concentrations of substrates (AAPFpNA, dissolved in DMSO), and mixed by centrifugation at 500 rpm for 1 min. Finally, the plate was incubated at 37° C. for 20 min, and the absorbance value at 405 nm was measured. In the 200 μL of reaction system, the final concentrations of AAPFpNA were 0, 0.125, 0.25, 0.285, 0.33, 0.4, and 0.5 mM, respectively. Make three repetitions for each concentration and plot the OD405 nm value with time to obtain the corresponding curve. Divide the slope of the curve by the slope of the standard curve and the enzyme concentration to obtain the initial velocity V0 (mM/(min*mM protein). Plot the initial velocity V0 with the concentration of substrate AAPFpNA using Prism software, and the Michaelis constant Km value of chymotrypsin hydrolyzing AAPFpNA was obtained.
• (1) Added a total 190 μL of reaction buffer (20 mM CaCl2, 50 mM Tris-HCl (pH 7.8)), different concentrations of anti-chymorypsin peptides (CHs) into the pre-cold 96 well plate, followed by preheating at 37° C. for 5 min and centrifugated at 500 rpm for 1 min and allowed to stand for 4 minutes. Then added 8 μL of 750 nM chymotrypsin and incubated at 37° C. for 10 min, and centrifugated at 500 rpm for 1 min and allowed to stand for 9 minutes. Finally, added 2 μL of 50 mM AAPFpNA, and mixed by centrifugation at 500 rpm for 1 min. The plate was incubated at 37° C. for 90 min, and the absorbance value at 405 nm was measured. Three repetitions were made, and only reaction buffer and substrate were added in the blank control as the minimum absorption value (Min OD405 nm); Only reaction buffer, enzyme and substrate were added in the negative control as the maximum absorption value (Max OD405). • (2) In the 200 μL of reaction system, the final concentrations of chymotrypsin and AAPFpNA were 30 nM and 0.5 mM, respectively. • (3) Data statistics
Residual activity of enzyme (%)=(1−(Max OD405 nm−Sample OD405 nm)/(Max OD405 nm−Min OD405 nm))*100 […]

Usually pKi stands for the Ki on a negative log10 scale, so that one unit is a factor of ten. Read a low pKi as a high Ki. The pIC50 is −log10 of the IC50, conventionally taken in molar units. Higher therefore signals a low IC50. On to `CC[C@H](C)[C@@H]1NC(=O)[C@H](CO)NC(=O)[C@H](Cc2ccc(O)cc2)NC(=O)[C@H]([C@@H](C)O)NC(=O)[C@H](C)NC(=O)[C@H](CO)NC(=O)CNC(=O)[C@@H](N)CSSC[C@@H](C(=O)N[C@@H](Cc2ccc(O)cc2)C(=O)O)NC(=O)[C@H](CCC(N)=O)NC(=O)[C@@H]2CCCN2C(=O)[C@@H]2CCCN2C1=O` [CH9] (H-CGSATYSIPPQCY-OH; disulfide 1-12; N-terminus and C-terminus assumed), for which the “inhibitory activity against chymotrypsin (in words)” value (“inhibitory activity” for short) is recorded as “certain inhibitory activity against chymotrypsin”, the pKi was 4.91 and the negative-log IC50 (pIC50) is 4.55.

Consider `CC[C@H](C)[C@H](N)C(=O)N[C@H]1CSSC[C@@H](C(=O)N[C@@H](Cc2ccccc2)C(=O)O)NC(=O)[C@H](CCC(N)=O)NC(=O)[C@H](C)NC(=O)[C@@H]2CCCN2C(=O)[C@H]([C@@H](C)CC)NC(=O)[C@H](CO)NC(=O)[C@H](Cc2ccccc2)NC(=O)[C@H]([C@@H](C)O)NC1=O` [CH40] (H-ICTFSIPAQCF-OH; disulfide 2-10; N-terminus and C-terminus assumed), for which the pKi is 5.97 and the pIC50 is 5.61.

On to `CC[C@H](C)[C@@H]1NC(=O)[C@H](CO)NC(=O)[C@H](Cc2ccc(O)cc2)NC(=O)[C@H]([C@@H](C)O)NC(=O)[C@H](C)NC(=O)[C@H](CO)NC(=O)CNC(=O)[C@@H](N)CSSC[C@@H](C(=O)N[C@H](C(=O)NCC(=O)O)C(C)C)NC(=O)[C@H](CCC(N)=O)NC(=O)[C@H](C)NC(=O)[C@@H]2CCCN2C1=O` [CH23] (H-CGSATYSIPAQCVG-OH; disulfide 1-12; N-terminus and C-terminus assumed), for which the “inhibitory activity” value is listed as “good inhibitory activity”, the pKi was 5.73 and the negative logarithm of the IC50 (pIC50) is 5.37.

`CC[C@H](C)[C@@H]1NC(=O)[C@H](CO)NC(=O)[C@H](Cc2ccc(O)cc2)NC(=O)[C@H]([C@@H](C)O)NC(=O)[C@@H](NC(=O)[C@@H](N)Cc2ccccc2)CSSC[C@@H](C(=O)N[C@@H](Cc2ccc(O)cc2)C(=O)N[C@@H](C)C(=O)O)NC(=O)[C@H](CCC(N)=O)NC(=O)[C@@H]2CCCN2C(=O)[C@@H]2CCCN2C1=O` [CH34] (H-FCTYSIPPQCYA-OH; disulfide 2-10; N-terminus and C-terminus assumed): the “inhibitory activity” value is given as “good inhibitory activity”.

In the case of `NC(=O)CC[C@H](NC(=O)[C@@H]1CSSC[C@H](NC(=O)[C@@H](N)Cc2ccccc2)C(=O)N[C@@H](CC(N)=O)C(=O)N[C@@H](Cc2ccc(O)cc2)C(=O)N[C@@H](CO)C(=O)N[C@@H](CC(N)=O)C(=O)N2CCC[C@H]2C(=O)N2CCC[C@H]2C(=O)N[C@@H](CCC(N)=O)C(=O)N1)C(=O)O` [CH46] (H-FCNYSNPPQCQ-OH; disulfide 2-10; N-terminus and C-terminus assumed), the negative-log IC50 (pIC50) was under 4.30.

With `CC[C@H](C)[C@@H]1NC(=O)[C@@H]2CCCN2C(=O)[C@@H]2CCCN2C(=O)[C@H]([C@@H](C)CC)NC(=O)[C@H](CO)NC(=O)[C@H](Cc2ccc(O)cc2)NC(=O)[C@H](CC(C)C)NC(=O)[C@@H](NC(=O)[C@H](CCCCN)NC(=O)CN)CSSC[C@@H](C(=O)N[C@@H](Cc2ccccc2)C(=O)N2CCC[C@H]2C(=O)N[C@@H](CC(N)=O)C(=O)O)NC1=O` [CH20] (H-GKCLYSIPPICFPN-OH; disulfide 3-11; N-terminus and C-terminus assumed), the pKi is 5.15 and the pIC50 was 4.78.

As for `CC[C@H](C)[C@@H]1NC(=O)[C@H](CO)NC(=O)[C@H](Cc2ccc(O)cc2)NC(=O)[C@H]([C@@H](C)O)NC(=O)[C@H](C)NC(=O)[C@H](C)NC(=O)CNC(=O)[C@@H](N)CSSC[C@@H](C(=O)N[C@@H](Cc2ccccc2)C(=O)O)NC(=O)[C@H](CCCCN)NC(=O)[C@H](C)NC(=O)[C@@H]2CCCN2C1=O` [CH31] (H-CGAATYSIPAKCF-OH; disulfide 1-12; N-terminus and C-terminus assumed), the “inhibitory activity” value is given as “certain inhibitory activity”, the negative logarithm of the Ki (pKi) was 5.58 and the negative-log IC50 (pIC50) is 5.22. For the setting “peptide 0.01 μM”, the “Residual activity of chymotrypsin” value came out at 107.4 ± 5.6%. Moreover, the “Residual activity of chymotrypsin” value (peptide 0.1 μM) was determined as 104.3 ± 1.7%. In addition, under “peptide 1 μM”, the “Residual activity of chymotrypsin” value was 104.8 ± 2.6%. Under “peptide 8 μM”, the “Residual activity of chymotrypsin” value stood at 42.5 ± 5.9%. Besides, under “peptide 10 μM”, the “Residual activity of chymotrypsin” value worked out at 29.5 ± 5.1%. Moreover, the “Residual activity of chymotrypsin” value (peptide 25 μM) was 12.7 ± 4.0%. Further, the “Residual activity of chymotrypsin” value (peptide 100 μM) amounted to 2.6 ± 0.3%. Also, the “Residual activity of chymotrypsin” value (peptide 300 μM) turned out to be 1.0 ± 0.1%. Also, the “Residual activity of chymotrypsin” value (peptide 1000 μM) amounted to 0.4 ± 0.0%.

For `C[C@@H]1NC(=O)[C@@H](NC(=O)[C@@H](N)Cc2ccccc2)CSSC[C@@H](C(=O)N[C@@H](CCC(N)=O)C(=O)O)NC(=O)[C@H](CCC(N)=O)NC(=O)[C@@H]2CCCN2C(=O)[C@@H]2CCCN2C(=O)[C@H](CC(N)=O)NC(=O)[C@H](CO)NC(=O)[C@H](Cc2ccc(O)cc2)NC1=O` [CH43] (H-FCAYSNPPQCQ-OH; disulfide 2-10; N-terminus and C-terminus assumed), the pKi is 5.40 and the pIC50 is 5.04.

For `CC[C@H](C)[C@@H]1NC(=O)[C@H](CO)NC(=O)[C@H](Cc2ccc(O)cc2)NC(=O)[C@H]([C@@H](C)O)NC(=O)[C@H](C)NC(=O)[C@H](CO)NC(=O)CNC(=O)[C@@H](N)CSSC[C@@H](C(=O)N[C@@H](Cc2ccccc2)C(=O)NCC(=O)O)NC(=O)[C@H](CCCCN)NC(=O)[C@H](C)NC(=O)[C@@H]2CCCN2C1=O` [CH24] (H-CGSATYSIPAKCFG-OH; disulfide 1-12; N-terminus and C-terminus assumed), the “inhibitory activity” value was “good inhibitory activity”, the pKi is 5.58 and the negative-log IC50 (pIC50) was 5.21.

Molecule `CC[C@H](C)[C@@H]1NC(=O)[C@H](CO)NC(=O)[C@H](Cc2ccc(O)cc2)NC(=O)[C@H]([C@@H](C)O)NC(=O)[C@H](C)NC(=O)[C@H](Cc2ccc(O)cc2)NC(=O)CNC(=O)[C@@H](N)CSSC[C@@H](C(=O)N[C@@H](Cc2ccc(O)cc2)C(=O)NCC(=O)O)NC(=O)[C@H](CCC(N)=O)NC(=O)[C@@H]2CCCN2C(=O)[C@@H]2CCCN2C1=O` [CH30] (H-CGYATYSIPPQCYG-OH; disulfide 1-12) showed a pIC50 of under 4.30.

`CC(C)C[C@H](NC(=O)[C@@H]1CSSC[C@H](NC(=O)[C@@H](N)CCCNC(=N)N)C(=O)N[C@@H](CC(=O)O)C(=O)N[C@@H](Cc2ccccc2)C(=O)N[C@@H](CO)C(=O)N[C@@H](Cc2c[nH]c3ccccc23)C(=O)N2CCC[C@H]2C(=O)N2CCC[C@H]2C(=O)N[C@@H](CCCNC(=N)N)C(=O)N1)C(=O)O` [CH42] (H-RCDFSWPPRCL-OH; disulfide 2-10; N-terminus and C-terminus assumed) showed a pIC50 of under 4.30.

`CC[C@H](C)[C@@H]1NC(=O)[C@H](CO)NC(=O)[C@H](Cc2ccc(O)cc2)NC(=O)[C@H]([C@@H](C)O)NC(=O)[C@H](C)NC(=O)[C@H]([C@@H](C)O)NC(=O)CNC(=O)[C@@H](N)CSSC[C@@H](C(=O)N[C@@H](Cc2ccc(O)cc2)C(=O)NCC(=O)O)NC(=O)[C@H](CCC(N)=O)NC(=O)[C@@H]2CCCN2C(=O)[C@@H]2CCCN2C1=O` [CH22] (H-CGTATYSIPPQCYG-OH; disulfide 1-12; N-terminus and C-terminus assumed) gave a pIC50 of under 4.30.
